Five molecules from PMC12888920, “MMP-9 regulates disulphide isomerase activity of TGM2 to enhance fusion glycoprotein-mediated syncytium formation of respiratory syncytial virus” (Protein & Cell, 2025) can be followed below.

Data set [1] in a line: Cell viability assay (CellTiter-Glo) in HEp-2 cells. Type of data set: cell-based. The settings on record: human. The method, then: (§1) Figure 7. MMP-9-mediated TGM2 cleavage potentiates RSV–host interaction. (A) Cytotoxicity profiling. Dose-response curves of TGM2 inhibitors (ZED-1227, Cystamine, Bacitracin, E64FC26, ML359) in HEp-2 cells (72 h treatment). Viability was assessed by CellTiter-Glo assay. Data normalized to untreated controls. mean ± SD, n = 3. (B) Antiviral efficacy. Viral inhibition (FFA) in RSV A2-infected HEp-2 cells treated with TGM2 inhibitors at threefold dilution gradients: ZED-1227 (60–10 µmol/L), Cystamine (200–22.2 µmol/L), Bacitracin (500–50 µmol/L), E64FC26 (0.2–0.05 µmol/L), and ML359 (10–1.1 µmol/L). DMSO as vehicle control. mean ± SD, n = 3. (C) TGM2–F protein interaction. Co-IP analysis in HEK293T cells co-expressing TGM2 and RSV F (48 h). Immunoblots were probed with anti-TGM2, anti-F, or IgG control. Blots represent three independent experiments. (D) Binding kinetics. BLI quantification of TGM2–DS-Cav1 (RSV F prefusion conformation) interaction. The results represent three biological replicates. (E) Ternary complex formation. Co-IP of MMP-9-TGM2-F complex in HEK293T cells (48 h). GAPDH as loading control. Below the asterisk represents the objective band. Blots represent three independent experiments. (F) Impairing MMP-9/TGM2/RSV-F complex inhibits RSV infection. […] (G) Proteolytic enhancement. MMP-9-cleaved TGM2 (TGM2-44) enhances protein disulfide isomerase (PDI) activity was measured using reduced DS-Cav1. mean ± SD, n = 3. (H) Truncation functional analysis. Viral titers (FFA) in HEp-2 cells expressing MMP-9, TGM2, or cleavage fragments (TGM2-44/41) post RSV infection (MOI = 1, 72 hpi). mean ± SD, n = 3. (I) Syncytium rescue. Syncytia area quantification in TGM2 truncation-expressing cells (ImageJ software). mean ± SD, n = 3. (J) Subcellular redistribution. Confocal microscopy of HEp-2 cells co-expressing TGM2 truncations (HA/FLAG-tagged) and RSV F (72 hpi). Scale bar: 10 µm. Images represent three biological replicates. (K) F protein expression. Fluorescence intensity quantification of RSV F in (J) (ImageJ software). mean ± SD, n = 3. (L) Fusion competence assay. Syncytium formation in HEK293T cells co-expressing TGM2 truncations and RSV F/F-C37S/C69S mutants (48 h). Scale bar: 10 µm. Images represent three biological replicates. (M) Mutant validation. RSV F expression levels in (L) were quantified by ImageJ software. mean ± SD, n = 3. The results are representatively shown with three random experiments. The error bars indicate the mean ± SD of three technical replicates (n = 3). […]
(§2) (B-C) Cytotoxicity profiles in HEp-2 (B) and HBEC (C) cells. […] Viability was assessed using the CellTiter-Glo assay (G7570, Promega). […]
(§3) 95 Cell viability was evaluated using a CellTiter -Glo® Luminescent Cell Viability Assay 96 kit (G7571, Promega) according to the manufacturer’s instructions. […]
In general terms: Cellular ATP, detected with luciferase, serves as a proxy for viable cell number.

The subject of data set [2] is RSV A2. The data set can be described thus: Viral inhibition (FFA) in RSV A2-infected HEp-2 cells treated with TGM2 inhibitors. The format is cell-based, Respiratory syncytial virus. The settings on record: HEp-2, RSV A2; ZED-1227 60–10, Cystamine 200–22.2, Bacitracin 500–50, E64FC26 0.2–0.05, ML359 10–1.1 µmol/L. The method, then: Figure 7. MMP-9-mediated TGM2 cleavage potentiates RSV–host interaction. (A) Cytotoxicity profiling. Dose-response curves of TGM2 inhibitors (ZED-1227, Cystamine, Bacitracin, E64FC26, ML359) in HEp-2 cells (72 h treatment). Viability was assessed by CellTiter-Glo assay. Data normalized to untreated controls. mean ± SD, n = 3. (B) Antiviral efficacy. Viral inhibition (FFA) in RSV A2-infected HEp-2 cells treated with TGM2 inhibitors at threefold dilution gradients: ZED-1227 (60–10 µmol/L), Cystamine (200–22.2 µmol/L), Bacitracin (500–50 µmol/L), E64FC26 (0.2–0.05 µmol/L), and ML359 (10–1.1 µmol/L). DMSO as vehicle control. mean ± SD, n = 3. (C) TGM2–F protein interaction. Co-IP analysis in HEK293T cells co-expressing TGM2 and RSV F (48 h). Immunoblots were probed with anti-TGM2, anti-F, or IgG control. Blots represent three independent experiments. (D) Binding kinetics. BLI quantification of TGM2–DS-Cav1 (RSV F prefusion conformation) interaction. The results represent three biological replicates. (E) Ternary complex formation. Co-IP of MMP-9-TGM2-F complex in HEK293T cells (48 h). GAPDH as loading control. Below the asterisk represents the objective band. Blots represent three independent experiments. (F) Impairing MMP-9/TGM2/RSV-F complex inhibits RSV infection. […] (G) Proteolytic enhancement. MMP-9-cleaved TGM2 (TGM2-44) enhances protein disulfide isomerase (PDI) activity was measured using reduced DS-Cav1. mean ± SD, n = 3. (H) Truncation functional analysis. Viral titers (FFA) in HEp-2 cells expressing MMP-9, TGM2, or cleavage fragments (TGM2-44/41) post RSV infection (MOI = 1, 72 hpi). mean ± SD, n = 3. (I) Syncytium rescue. Syncytia area quantification in TGM2 truncation-expressing cells (ImageJ software). mean ± SD, n = 3. (J) Subcellular redistribution. Confocal microscopy of HEp-2 cells co-expressing TGM2 truncations (HA/FLAG-tagged) and RSV F (72 hpi). Scale bar: 10 µm. Images represent three biological replicates. (K) F protein expression. Fluorescence intensity quantification of RSV F in (J) (ImageJ software). mean ± SD, n = 3. (L) Fusion competence assay. Syncytium formation in HEK293T cells co-expressing TGM2 truncations and RSV F/F-C37S/C69S mutants (48 h). Scale bar: 10 µm. Images represent three biological replicates. (M) Mutant validation. RSV F expression levels in (L) were quantified by ImageJ software. mean ± SD, n = 3. The results are representatively shown with three random experiments. The error bars indicate the mean ± SD of three technical replicates (n = 3). Statistical analysis: one-way ANOVA with Dunnett’s post hoc test (B, F, G, H, I, K, M); unpaired two-tailed Student’s t-test (F, H, I, K, M). *P < 0.05, **P < 0.01, ***P < 0.001; ns, not significant.

The test system of data set [3] is RSV A2. The data set can be described thus: Antiviral activity (FFA) against RSV A2 in HEp-2 cells. Type of data set: cell-based. The settings on record: human respiratory syncytial virus, HEp-2. From the text:
(§4) Figure 1. Antiviral activity of metalloproteinase inhibitors against RSV in vitro. (A) Experimental workflow for RSV A2 infection and compound treatment. (B) High-throughput screening of TargetMol L1100 library (246 host protease inhibitors targeting 10 pathways: MMPs, caspases, proteasomes, apoptosis regulators, cysteine proteases, gamma-secretase, autophagy modulators, serine proteases, DPP-4, and beta-secretase) using concentration gradients (1, 5, 10 µmol/L). HEp-2 cells were pretreated with compounds for 1 hour prior to RSV A2 infection (MOI = 0.1). Plaque formation was quantified at 72 hours post-infection (hpi) and normalized to DMSO controls. […] (G) Target overlap analysis of four MMP-9-targeting inhibitors. (H) Viral titers in supernatants of HEp-2 cells transfected with MMP-specific siRNAs (24 h) followed by RSV A2 infection (MOI = 1, 72 h). mean ± SD, n = 3. The results are representatively shown with three random experiments. The error bars indicate the mean ± SD of three technical replicates (n = 3). Statistical significance was determined by one-way ANOVA with Dunnett’s post hoc test: *P < 0.05, ***P < 0.001; ns, not significant. […]
(§5) 110 overtly cytotoxic) underwent dose -response validation (0.00004 –10 μM) to generate
(§6) 111 EC50 curves (GraphPad Prism 8.0) .
(§7) 112 Evaluation of in vitro antiviral activity
(§8) 113 Compound inhibitor treatments: HEp-2 cells (1.3×10⁴/well) or HBEC (1.8×10⁴/well)
(§9) 114 were pretreated with test compounds for 1 h before RSV A2/B18537 infection
(§10) 115 (MOI=0.1 or 0.3). Viral inhibition was quantified at 72 hpi via FFA. Fixed cells (4%
(§11) 116 PFA) were permeabilized (0.3% Triton X-100), stained with anti-RSV-FITC
(§12) 118 Fluorescent foci were normalized to nuclear counts (ImageJ software) for EC 50
(§13) 119 determination via four-parameter logistic regression (GraphPad Prism 8.0). Data
(§14) 120 represent triplicate experiments. […]

For data set [4], the system named is RSV B18537. Nature of the data set: Antiviral activity (FFA) against RSV B18537 in HEp-2 cells. Type of data set: cell-based. The settings on record: human respiratory syncytial virus, HEp-2.
Excerpt: as §4
(§15) 109 111813, MCE) and 0.1% DMSO vehicle. Primary hits (>50% CPE reduction + not
as §5, §6, §7, §8, §9, §10, §11, §12, §13, §14

Data set [5] has as its system RSV A2. The data set can be described thus: Antiviral activity (FFA) against RSV A2 in primary human bronchial epithelial cells (HBEC). To be noted: human respiratory syncytial virus, Epithelial cell. The format is cell-based.
Excerpt: as §4, §7, §8, §9, §10, §11, §12, §13, §14

Data set [6] has as its system RSV B18537. The data set can be described thus: Antiviral activity (FFA) against RSV B18537 in HBEC. Type of data set: cell-based. To be noted: human respiratory syncytial virus.
Excerpt: as §4, §7, §8, §9, §10, §11, §12, §13, §14

Data set [7] has as its system RSV A2. The data set can be described thus: High-throughput antiviral screening of protease inhibitor library against RSV A2 in HEp-2 cells. The format is cell-based, Respiratory syncytial virus. The settings on record: RSV A2, MOI = 0.1, 1, 5, 10 µmol/L, 72 hpi.
Excerpt: Figure 1. Antiviral activity of metalloproteinase inhibitors against RSV in vitro. (A) Experimental workflow for RSV A2 infection and compound treatment. (B) High-throughput screening of TargetMol L1100 library (246 host protease inhibitors targeting 10 pathways: MMPs, caspases, proteasomes, apoptosis regulators, cysteine proteases, gamma-secretase, autophagy modulators, serine proteases, DPP-4, and beta-secretase) using concentration gradients (1, 5, 10 µmol/L). HEp-2 cells were pretreated with compounds for 1 hour prior to RSV A2 infection (MOI = 0.1). Plaque formation was quantified at 72 hours post-infection (hpi) and normalized to DMSO controls. […] (G) Target overlap analysis of four MMP-9-targeting inhibitors. (H) Viral titers in supernatants of HEp-2 cells transfected with MMP-specific siRNAs (24 h) followed by RSV A2 infection (MOI = 1, 72 h). mean ± SD, n = 3. The results are representatively shown with three random experiments. The error bars indicate the mean ± SD of three technical replicates (n = 3). Statistical significance was determined by one-way ANOVA with Dunnett’s post hoc test: *P < 0.05, ***P < 0.001; ns, not significant.
104 High-throughput antiviral screening
105 The L1100 protease inhibitor library (246 compounds; L1100, TargetMol) was
106 screened against RSV A2 in HEp -2 cells. Compounds (10 mM DMSO stocks) were
107 robotically dispensed 1 h pre -infection at final concentrations of 1, 5, 10 μM.
108 Infection rates (72 hpi) were normalized to PC786 (1 μM; positive control; HY -
as §15, §5, §6, §7, §8, §9, §10, §11, §12, §13, §14

For the next data set, the system named is HEp-2 cells. The data set can be described thus: Cell viability assay (CellTiter-Glo) in HEp-2 cells. The format is cell-based. The protocol: as §1, §2, §3

In general, CC50 refers to the concentration that lowers cell viability or growth by half. As for `CCC(CC)CNC(=O)Cn1cccc(NC(=O)[C@H](CC/C=C/C(=O)OC)NC(=O)c2cncn2C)c1=O` [ZED-1227], the CC50 at 72 h in data set [1] is 78.7 µM. The “inhibition of RSV replication (antiviral efficacy)” value (shortened to “inhibition of RSV replication”) with RSV A2 [2] is given as “did not inhibit RSV replication”.

Usually EC50 stands for the concentration at which the effect is half-maximal. Lower therefore signals an effect from little substance. For `CC(C)=CCc1c(O)c(CC=C(C)C)c2oc3c(O)ccc(O)c3c(=O)c2c1O` [Gartanin], the EC50 in the data set with RSV A2 [3] came to 726 nM; in the data set on RSV B18537 [4], 738 nM; in the data set on RSV A2 [5], 625 nM; with RSV B18537 [6] it was 733 nM. In the data set with RSV A2 [7], the “inhibition of RSV infection in HEp-2 cells” value was “significant dose-dependent inhibition”.

Turning to `CCOC(=O)C1(CCOc2ccccc2)CCN(Cc2ccc(O)c(Cl)c2)CC1` [ML359], the CC50 in the data set on HEp-2 cells came to 26.1 µM. Besides, the “inhibition of RSV replication” value with RSV A2 [2] was “strong antiviral efficacy”.

On to Bacitracin, for which, in the data set on RSV A2 [2], the “inhibition of RSV replication” value is on record as “strong antiviral efficacy”.

As to `NCCSSCCN` [Cystamine], the CC50 at 72 h in data set [1] amounted to 387 µM. Moreover, the “inhibition of RSV replication” value in the data set with RSV A2 [2] is given as “did not inhibit RSV replication”.
